Assay results published in patent publication US11773094B2, “Farnesoid X receptor agonists and uses thereof” (Metacrine, Inc., priority 2018, dated 2023).

Molecular target: T1, hFXR (Homo sapiens, UniProt Q96RI1)
T1 construct: expressed in transfected cells; host or cells: CV-1 cells
T1 sequence (Q96RI1 1-486): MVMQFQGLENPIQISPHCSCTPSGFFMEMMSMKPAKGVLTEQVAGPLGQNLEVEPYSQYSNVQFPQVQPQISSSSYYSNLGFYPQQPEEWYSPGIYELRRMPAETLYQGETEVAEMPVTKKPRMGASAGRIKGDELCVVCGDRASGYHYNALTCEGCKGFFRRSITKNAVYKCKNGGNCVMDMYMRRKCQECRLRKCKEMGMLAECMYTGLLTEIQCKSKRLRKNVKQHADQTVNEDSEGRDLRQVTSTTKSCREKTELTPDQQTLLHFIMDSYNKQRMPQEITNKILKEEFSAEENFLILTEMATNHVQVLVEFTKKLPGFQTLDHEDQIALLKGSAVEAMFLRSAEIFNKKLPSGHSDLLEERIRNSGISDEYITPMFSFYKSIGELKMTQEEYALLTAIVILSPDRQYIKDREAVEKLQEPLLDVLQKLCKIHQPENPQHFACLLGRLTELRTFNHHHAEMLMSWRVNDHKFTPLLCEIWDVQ
T1 sequence (P19793 1-462 partner): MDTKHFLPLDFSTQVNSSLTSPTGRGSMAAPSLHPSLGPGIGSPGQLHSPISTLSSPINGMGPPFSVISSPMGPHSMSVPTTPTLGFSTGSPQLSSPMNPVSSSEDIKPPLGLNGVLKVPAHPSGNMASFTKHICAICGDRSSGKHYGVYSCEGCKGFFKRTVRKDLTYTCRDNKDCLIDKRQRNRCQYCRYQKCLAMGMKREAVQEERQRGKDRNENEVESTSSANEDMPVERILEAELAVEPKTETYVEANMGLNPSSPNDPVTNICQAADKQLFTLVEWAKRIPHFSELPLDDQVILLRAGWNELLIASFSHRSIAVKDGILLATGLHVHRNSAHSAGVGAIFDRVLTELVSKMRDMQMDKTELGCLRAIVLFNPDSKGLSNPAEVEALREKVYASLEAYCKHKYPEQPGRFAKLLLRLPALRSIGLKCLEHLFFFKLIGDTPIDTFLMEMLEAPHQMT
Assay: In Vitro FXR Assay (TK): TK-ECRE-luc reporter in transfected CV-1 cells
Assay type: cell-based
Details: CV-1 cells transfected with hFXR, hRXR, pCMX-YFP, 18 hrs incubation, luminescence
Method: Example B-1: In Vitro FXR Assay (TK)
CV-1 cells were seeded at a density of 2,000,000 cells in a T175 flask with DMEM+10% charcoal double-stripped FBS and incubated at 37° C. in 5% CO2 for 18 h (O/N).
After 18 h of incubation, the medium in the T175 flask was changed with fresh DMEM+10% charcoal super-stripped serum. In a polypropylene tube, 2500 μL OptiMEM (Life Technologies, Cat #31985-062) was combined with expression plasmids for hFXR, hRXR, TK-ECRE-luc and pCMX-YFP. The tube was then briefly vortexed and incubated at room temperature for 5 minutes. Transfection reagent (X-tremeGENE HP from Roche, Cat #06 366 236 001) was added to the OptiMEM/plasmid mixture vortexed and incubated at room temperature for 20 minutes. Following incubation, the transfection reagent/DNA mixture complex was added to cells in the T175 flask and the cells were incubated at 37° C. in 5% CO2 for 18 h (O/N).
Compounds were serially diluted in DMSO and added to transfected CV-1 cells. The cells were then incubated for 18 hrs. The next day cells were lysed and examined for luminescence.

Structure (SMILES)	EC50 [nM]
CCC(C)(CC)n1cc(-c2ccnc(N(CC34CCC(c5ccc(OC)c(C)c5)(CC3)CC4)C(=O)[C@H]3CC[C@H](OC(=O)NCCCO)CC3)c2)cn1 [Compound 4.07, 4-(((4-(4-Methoxy-3-methylphenyl)bicyclo[2.2.2]octan-1-yl)methyl)(4-(1-(3-methylpentan-3-yl)-1H-pyrazol-4-yl)pyridin-2-yl)carbamoyl)cyclohexyl trans-(3-hydroxypropyl)carbamate]	≤ 10
COc1ccc([C@]23CC[C@@](CN(c4cc(-c5cnn(C(C)(C)C)c5)ccn4)C(=O)[C@H]4CC[C@H](OC(=O)N5CC(CO)C5)CC4)(CC2)CC3)cc1C [Compound 3.02, 4-((4-(1-(tert-Butyl)-1H-pyrazol-4-yl)pyridin-2-yl)(trans(4-(4-methoxy-3-methylphenyl)bicyclo[2.2.2]octan-1-yl)methyl)carbamoyl) (trans-cyclohexyl) 3-(hydroxymethyl)azetidine-1-carboxylate]	≤ 10
COc1ccc(C23CCC(CN(c4cc(-c5cnc(C(C)(C)C)s5)ccn4)C(=O)[C@H]4CC[C@H](OC(=O)N5CC[C@H]5CO)CC4)(CC2)CC3)cc1C [Compound 2.10, (S)-4-((4-(2-(tert-Butyl)thiazol-5-yl)pyridin-2-yl)((4-(4-methoxy-3-methylphenyl)bicyclo[2.2.2]octan-1-yl)methyl)carbamoyl)cyclohexyl 2-(hydroxymethyl)azetidine- trans-1-carboxylate]	≤ 10
COc1ccc(C23CCC(CN(c4cc(-c5cnc(C(C)(C)C)s5)ccn4)C(=O)[C@H]4CC[C@H](OC(=O)N5CC(S(C)(=O)=O)C5)CC4)(CC2)CC3)cc1C [Compound 2.03, 4-((4-(2-(tert-Butyl)thiazol-5-yl)pyridin-2-yl)((4-(4-methoxy-3-methylphenyl)bicyclo[2.2.2]octan-1-yl)methyl)carbamoyl) (trans-cyclohexyl) 3-(methylsulfonyl)azetidine-1-carboxylate]	≤ 10
COc1ccc(C23CCC(CN(c4cc(-c5cnn(C(C)(C)C)c5)ccn4)C(=O)[C@H]4CC[C@H](OC(=O)N5CC(OCCO)C5)CC4)(CC2)CC3)cc1C [Compound 2.25, 4-((4-(1-(tert-Butyl)-1H-pyrazol-4-yl)pyridin-2-yl)((4-(4-methoxy-3-methylphenyl)bicyclo[2.2.2]octan-1-yl)methyl)carbamoyl) (trans-cyclohexyl) 3-(2-hydroxyethoxy)azetidine-1-carboxylate]	≤ 10
COc1ncc(C23CCC(CN(c4cc(-c5cnn(C(C)(C)C)c5)ccn4)C(=O)[C@H]4CC[C@H](OC(=O)N5CC(O)C5)CC4)(CC2)CC3)cc1C [Compound 3.05, 4-((4-(1-(tert-Butyl)-1H-pyrazol-4-yl)pyridin-2-yl)((4-(6-methoxy-5-methylpyridin-3-yl)bicyclo[2.2.2]octan-1-yl)methyl)carbamoyl) (trans-cyclohexyl) 3-hydroxyazetidine-1-carboxylate]	≤ 10
CCC(C)(C)n1cc(-c2ccnc(N(CC34CCC(c5ccc(OC)c(C)c5)(CC3)CC4)C(=O)[C@H]3CC[C@H](OC(=O)N4CC(C)(O)C4)CC3)c2)cn1 [Compound 4.01, 4-(((4-(4-Methoxy-3-methylphenyl)bicyclo[2.2.2]octan-1-yl)methyl)(4-(1-(tert-pentyl)-1H-pyrazol-4-yl)pyridin-2-yl)carbamoyl) cyclohexyl trans-3-hydroxy-3-methylazetidine-1-carboxylate]	≤ 10
COc1ccc(C23CCC(CN(c4cc(-c5cnn(C(C)(C)C(F)(F)F)c5)ccn4)C(=O)[C@H]4CC[C@H](OC(=O)N5CC(O)C5)CC4)(CC2)CC3)cc1C [Compound 4.09, 4-(((4-(4-Methoxy-3-methylphenyl)bicyclo[2.2.2]octan-1-yl)methyl)(4-(1-(1,1,1-trifluoro-2-methylpropan-2-yl)-1H-pyrazol-4-yl)pyridin-2-yl)carbamoyl)cyclohexyl trans-3-hydroxyazetidine-1-carboxylate]	≤ 10
COc1ccc(C23CCC(CN(c4cc(-c5cnn(C(C)(C)C)c5)ccn4)C(=O)[C@H]4CC[C@H](OC(=O)N5CCC(N(C)C)C5)CC4)(CC2)CC3)cc1C (stereo partly drawn) [Compound 2.26, 4-((4-(1-(tert-Butyl)-1H-pyrazol-4-yl)pyridin-2-yl)((4-(4-methoxy-3-methylphenyl)bicyclo[2.2.2]octan-1-yl)methyl)carbamoyl)cyclohexyl 3-(dimethylamino)pyrrolidine- trans-1-carboxylate]	≤ 10
COc1ccc(C23CCC(CN(c4cc(-c5cnc(C(C)(C)C)s5)ccn4)C(=O)[C@H]4CC[C@H](OC(=O)N5CC(OCCO)C5)CC4)(CC2)CC3)cc1C [Compound 2.07, 4-((4-(2-(tert-Butyl)thiazol-5-yl)pyridin-2-yl)((4-(4-methoxy-3-methylphenyl)bicyclo[2.2.2]octan-1-yl)methyl)carbamoyl) (trans-cyclohexyl) 3-(2-hydroxyethoxy)azetidine-1-carboxylate]	≤ 10
COc1ccc(C23CCC(CN(c4cc(-c5cnc(C(C)(C)C)s5)ccn4)C(=O)[C@H]4CC[C@H](OC(=O)NCCCO)CC4)(CC2)CC3)cc1C [Compound 2.02, 4-((4-(2-(tert-Butyl)thiazol-5-yl)pyridin-2-yl)((4-(4-methoxy-3-methylphenyl)bicyclo[2.2.2]octan-1-yl)methyl)carbamoyl) (trans-cyclohexyl) (3-hydroxypropyl)carbamate]	≤ 10
COc1ccc([C@H]2CC[C@H](CN(c3cc(-c4cnn(C(C)(C)C)c4)ccn3)C(=O)[C@H]3CC[C@H](OC(=O)N4CC(O)C4(C)C)CC3)CC2)cc1C (stereo partly drawn) [Compound 1.09, trans-4-((4-(1-(tert-Butyl)-1H-pyrazol-4-yl)pyridin-2-yl)((trans-4-(4-methoxy-3-methylphenyl)cyclohexyl)methyl)carbamoyl) cyclohexyl 3-hydroxy-2,2-dimethylazetidine-1-carboxylate]	≤ 10
COc1ccc([C@H]2CC[C@H](CN(c3cc(-c4cnn(C(C)(C)C)c4)ccn3)C(=O)[C@H]3CC[C@H](OC(=O)N4CC(O)C4)CC3)CC2)cc1C [Compound 1.08, trans-4-((4-(1-(tert-Butyl)-1H-pyrazol-4-yl)pyridin-2-yl)((trans-4-(4-methoxy-3-methylphenyl)cyclohexyl)methyl)carbamoyl) cyclohexyl 3-hydroxyazetidine-1-carboxylate]	10 to 1000
COc1ccc(C23CCC(CN(c4cc(-c5cnn(C(C)(C)C)c5)ccn4)C(=O)[C@H]4CC[C@H](OC(=O)N5CCC(O)C5)CC4)(CC2)CC3)cc1C (stereo partly drawn) [Compound 3.03, 4-((4-(1-(tert-Butyl)-1H-pyrazol-4-yl)pyridin-2-yl)((4-(4-methoxy-3-methylphenyl)bicyclo[2.2.2]octan-1-yl)methyl)carbamoyl) (trans-cyclohexyl) 3-hydroxypyrrolidine-1-carboxylate]	≤ 10
COc1ccc(C23CCC(CN(c4cc(-c5cnc(C(C)(C)C)s5)ccn4)C(=O)[C@H]4CC[C@H](OC(=O)N5CC(O)C5)CC4)(CC2)CC3)cc1C [Compound 3.07, 4-((4-(2-(tert-Butyl)thiazol-5-yl)pyridin-2-yl)((4-(4-methoxy-3-methylphenyl)bicyclo[2.2.2]octan-1-yl)methyl)carbamoyl) cyclohexyl trans-3-hydroxyazetidine-1-carboxylate]	≤ 10
COc1ccc(C23CCC(CN(c4cc(-c5cnn(C(C)(C)C)c5)ccn4)C(=O)[C@H]4CC[C@H](OC(=O)NC5COC5)CC4)(CC2)CC3)cc1C [Compound 2.28, 4-((4-(1-(tert-Butyl)-1H-pyrazol-4-yl)pyridin-2-yl)((4-(4-methoxy-3-methylphenyl)bicyclo[2.2.2]octan-1-yl)methyl)carbamoyl) (trans-cyclohexyl) oxetan-3-ylcarbamate]	≤ 10
COc1ccc([C@H]2CC[C@H](CN(c3cc(-c4cnc(C(C)(C)C)s4)ccn3)C(=O)[C@H]3CC[C@H](OC(=O)N4CCC(O)CC4)CC3)CC2)cc1C [Compound 1.03, trans-4-((4-(2-(tert-Butyl)thiazol-5-yl)pyridin-2-yl)(((trans)-4-(4-methoxy-3-methylphenyl)cyclohexyl)methyl)carbamoyl) cyclohexyl 4-hydroxypiperidine-1-carboxylate]	10 to 1000
